From PubChem BioAssay AID1963978 (Molecular Pharmacology Branch, DTP, NCI, 2024)

System: 616215-338-R-J1-PDC spheroids with HUVEC/MSC, viability
Test: Anticancer human tumor 616215-338-R-J1-PDC patient-derived colon adenocarcinoma cell line growth inhibition [PI3K]
Settings: for IC50: curve of first compound; for viability, T/C: stronger effect = lower value
Procedure, shortened: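 We assembled tumor spheroids that included a stromal compartment of HUVEC and MSCs, then exposed them to targeted agents alone and together with PI3K pathway inhibitors. Concentration series descended by half-log from clinically achievable Cmax levels. Viability served as the endpoint.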

[1] = second compound 0.00316 µM, first compound 0.0316 µM
[2] = second compound 0.00316 µM, first compound 0.1 µM
[3] = second compound 0.00316 µM, first compound 0.316 µM
[4] = second compound 0.00316 µM, first compound 1 µM
[5] = second compound 0.00316 µM, first compound 3.16 µM
[6] = second compound 0.00316 µM, first compound 10 µM
[7] = second compound 0.01 µM, first compound 0.0316 µM
[8] = second compound 0.01 µM, first compound 0.1 µM
[9] = second compound 0.01 µM, first compound 0.316 µM
[10] = second compound 0.01 µM, first compound 1 µM
[11] = second compound 0.01 µM, first compound 3.16 µM
[12] = second compound 0.01 µM, first compound 10 µM
[13] = second compound 0.0316 µM, first compound 0.0316 µM
[14] = second compound 0.0316 µM, first compound 0.1 µM
[15] = second compound 0.0316 µM, first compound 0.316 µM
[16] = second compound 0.0316 µM, first compound 1 µM
[17] = second compound 0.0316 µM, first compound 3.16 µM
[18] = second compound 0.0316 µM, first compound 10 µM
[19] = second compound 0.1 µM, first compound 0.0316 µM
[20] = second compound 0.1 µM, first compound 0.1 µM
[21] = second compound 0.1 µM, first compound 0.316 µM
[22] = second compound 0.1 µM, first compound 1 µM
[23] = second compound 0.1 µM, first compound 3.16 µM
[24] = second compound 0.1 µM, first compound 10 µM
[25] = second compound 0.316 µM, first compound 0.0316 µM
[26] = second compound 0.316 µM, first compound 0.1 µM
[27] = second compound 0.316 µM, first compound 0.316 µM
[28] = second compound 0.316 µM, first compound 1 µM
[29] = second compound 0.316 µM, first compound 3.16 µM
[30] = second compound 0.316 µM, first compound 10 µM
[31] = second compound 1 µM, first compound 0.0316 µM
[32] = second compound 1 µM, first compound 0.1 µM
[33] = second compound 1 µM, first compound 0.316 µM
[34] = second compound 1 µM, first compound 1 µM
[35] = second compound 1 µM, first compound 3.16 µM
[36] = second compound 1 µM, first compound 10 µM
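Note: spheroids exposed to agents for seven days before the viability read.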

## CNC(=O)c1ccc(N2C(=S)N(c3ccc(C#N)c(C(F)(F)F)c3)C(=O)C2(C)C)cc1F + COc1c(OCCCN2CCOCC2)ccc2c3n(c(=NC(=O)c4cnc(N)nc4)nc12)CCN3
Second compound 0.00316 µM
  IC50: > 10 µM
Second compound 0.01 µM
  IC50: > 10 µM
Second compound 0.0316 µM
  IC50: > 10 µM
Second compound 0.1 µM
  IC50: > 10 µM
Second compound 0.316 µM
  IC50: < 0.0316 µM
Second compound 1 µM
  IC50: < 0.0316 µM
[1]
  viability, T/C: 92.8%
[2]
  viability, T/C: 92.1%
[3]
  viability, T/C: 95.9%
[4]
  viability, T/C: 92%
[5]
  viability, T/C: 99%
[6]
  viability, T/C: 93%
[7]
  viability, T/C: 98.7%
[8]
  viability, T/C: 108%
[9]
  viability, T/C: 103%
[10]
  viability, T/C: 93.3%
[11]
  viability, T/C: 111%
[12]
  viability, T/C: 87%
[13]
  viability, T/C: 103%
[14]
  viability, T/C: 98.1%
[15]
  viability, T/C: 99.8%
[16]
  viability, T/C: 105%
[17]
  viability, T/C: 96.5%
[18]
  viability, T/C: 89.1%
[19]
  viability, T/C: 97.4%
[20]
  viability, T/C: 89.6%
[21]
  viability, T/C: 91.5%
[22]
  viability, T/C: 107%
[23]
  viability, T/C: 84.6%
[24]
  viability, T/C: 67%
[25]
  viability, T/C: 50.8%
[26]
  viability, T/C: 45.3%
[27]
  viability, T/C: 38.1%
[28]
  viability, T/C: 43.1%
[29]
  viability, T/C: 41.1%
[30]
  viability, T/C: 29.2%
[31]
  viability, T/C: 21.8%
[32]
  viability, T/C: 22.5%
[33]
  viability, T/C: 22.8%
[34]
  viability, T/C: 22%
[35]
  viability, T/C: 25.6%
[36]
  viability, T/C: 14.4%

## CNC(=O)c1ccc(N2C(=S)N(c3ccc(C#N)c(C(F)(F)F)c3)C(=O)C2(C)C)cc1F + Cc1nc(NC(=O)N2CCCC2C(N)=O)sc1-c1ccnc(C(C)(C)C(F)(F)F)c1
Second compound 0.0316 µM
  IC50: > 10 µM
Second compound 0.1 µM
  IC50: > 10 µM
Second compound 0.316 µM
  IC50: > 10 µM
Second compound 1 µM
  IC50: > 10 µM
Second compound 3.16 µM
  IC50: > 10 µM
Second compound 10 µM
  IC50: > 10 µM
[13]
  viability, T/C: 97.6%
[14]
  viability, T/C: 95.1%
[15]
  viability, T/C: 102%
[16]
  viability, T/C: 96.5%
[17]
  viability, T/C: 95.6%
[18]
  viability, T/C: 93%
[19]
  viability, T/C: 116%
[20]
  viability, T/C: 86%
[21]
  viability, T/C: 94.7%
[22]
  viability, T/C: 99%
[23]
  viability, T/C: 91.9%
[24]
  viability, T/C: 103%
[25]
  viability, T/C: 94%
[26]
  viability, T/C: 99.9%
[27]
  viability, T/C: 109%
[28]
  viability, T/C: 97.9%
[29]
  viability, T/C: 94.4%
[30]
  viability, T/C: 93.1%
[31]
  viability, T/C: 101%
[32]
  viability, T/C: 96.4%
[33]
  viability, T/C: 104%
[34]
  viability, T/C: 97.4%
[35]
  viability, T/C: 101%
[36]
  viability, T/C: 104%
Second compound 3.16 µM, first compound 0.0316 µM
  viability, T/C: 101%
Second compound 3.16 µM, first compound 0.1 µM
  viability, T/C: 93.8%
Second compound 3.16 µM, first compound 0.316 µM
  viability, T/C: 91.3%
Second compound 3.16 µM, first compound 1 µM
  viability, T/C: 90%
Second compound 3.16 µM, first compound 3.16 µM
  viability, T/C: 93.5%
Second compound 3.16 µM, first compound 10 µM
  viability, T/C: 90.6%
Second compound 10 µM, first compound 0.0316 µM
  viability, T/C: 90.6%
Second compound 10 µM, first compound 0.1 µM
  viability, T/C: 93.3%
Second compound 10 µM, first compound 0.316 µM
  viability, T/C: 98.4%
Second compound 10 µM, first compound 1 µM
  viability, T/C: 98.9%
Second compound 10 µM, first compound 3.16 µM
  viability, T/C: 99.4%
Second compound 10 µM, first compound 10 µM
  viability, T/C: 54.6%

## CC(C)NCC(C(=O)N1CCN(c2ncnc3c2C(C)CC3O)CC1)c1ccc(Cl)cc1 (stereo unspecified) + COc1c(OCCCN2CCOCC2)ccc2c3n(c(=NC(=O)c4cnc(N)nc4)nc12)CCN3
Second compound 0.00316 µM
  IC50: 4.67 µM
Second compound 0.01 µM
  IC50: 4 µM
Second compound 0.0316 µM
  IC50: 2.56 µM
Second compound 0.1 µM
  IC50: 1.64 µM
Second compound 0.316 µM
  IC50: < 0.0316 µM
Second compound 1 µM
  IC50: < 0.0316 µM
[1]
  viability, T/C: 87.4%
[2]
  viability, T/C: 92.8%
[3]
  viability, T/C: 92.9%
[4]
  viability, T/C: 97%
[5]
  viability, T/C: 64.3%
[6]
  viability, T/C: 22.1%
[7]
  viability, T/C: 93.1%
[8]
  viability, T/C: 99.6%
[9]
  viability, T/C: 100%
[10]
  viability, T/C: 103%
[11]
  viability, T/C: 57.2%
[12]
  viability, T/C: 21.4%
[13]
  viability, T/C: 96.8%
[14]
  viability, T/C: 102%
[15]
  viability, T/C: 93.6%
[16]
  viability, T/C: 94.4%
[17]
  viability, T/C: 40.1%
[18]
  viability, T/C: 23.7%
[19]
  viability, T/C: 98.8%
[20]
  viability, T/C: 84.4%
[21]
  viability, T/C: 80.3%
[22]
  viability, T/C: 55.7%
[23]
  viability, T/C: 39.6%
[24]
  viability, T/C: 18.5%
[25]
  viability, T/C: 38.3%
[26]
  viability, T/C: 37.1%
[27]
  viability, T/C: 33.3%
[28]
  viability, T/C: 30.3%
[29]
  viability, T/C: 28.2%
[30]
  viability, T/C: 17%
[31]
  viability, T/C: 24.8%
[32]
  viability, T/C: 21.8%
[33]
  viability, T/C: 22.1%
[34]
  viability, T/C: 20.9%
[35]
  viability, T/C: 20.7%
[36]
  viability, T/C: 14.1%
